In patent US10030260B2, “Inducible reconstitution and real-time quantitative kinetic system for the study of intramembrane enzymes” (THE JOHNS HOPKINS UNIVERSITY, priority 2012, dated 2018):
Substitutions are numbered along the chain they refer to. “Also recorded” adds a separate entry of the source. Where a SMILES comes first, the peptide text is derived from it. The star is where a group is joined. FITC = O=C1OC2(c3ccc(O)cc3Oc3cc(O)ccc32)c2ccc(NC(=S)*)cc21; βAla = NCCC(=O)O

Legend:
E. coli GlpG = molecular target: T1, E. coli GlpG (Escherichia coli, UniProt P09391); assay: Inducible reconstitution and real-time proteolysis assay in proteoliposomes; assay type: biochemical
T1 construct: GST (cleaved yes); made in house; host or cells: E. coli C43 (DE3)
Experimental: (§1) 30 μg of E. coli liposomes were mixed with 50 mM NaAcetate pH 4.0, 150 mM NaCl, 0.05 to 500 pmoles of rhomboid enzyme, and 20 to 1600 pmoles of FITC-substrate. This co-reconstitution mix was diluted 20-fold with 12.5 mM NaAcetate pH 4.0, 37.5 mM NaCl to reduce detergent below its critical micelle concentration and promote reconstitution. Proteoliposomes were collected by ultracentrifugation at 600,000 g for 20 minutes in an Optima MAX-XP ultracentrifuge (Beckman). […] Fluorescence was monitored every minute using monochromators set to wavelengths of 485±20 nm (excitation) and 528±20 nm (emission). Alternatively, time points were quenched with equal volumes of 2× Tricine SDS-sample buffer, resolved on 16% Tricine gels (Life Technologies), and imaged with a blue laser and fluorescein emission filters on a Typhoon Imager (GE Healthcare). APP+Spi7-Flag and HA-EcGlpG were co-reconstituted as above, resolved by SDS-PAGE, detected by 2-color anti-Flag and anti-HA western analysis, and imaged with an Odyssey infrared scanner (LiCor Biosciences).
All data were analyzed and graphed using the R language and environment. Initial rates were extracted from real-time curves between 4 and 14 minutes using the slope (m) in a linear model: y=mx+b. Initial rates versus substrate concentration of reconstituted reactions were modeled using the Hill-modified Michaelis Menten equation: v0=(Vmax*[S0]^h)/(Km^h+[S0]^h). […]
To establish controlled conditions for a Michaelis-Menten kinetic system, we lowered GlpG levels to 4 pmoles while varying substrate from 20 to 1600 pmoles and co-reconstituted both into 200 nm proteoliposomes comprised of E. coli lipids to preserve its physiological environment as much as possible (FIG. 9A). […] Finally, FITC-TatA reconstituted in both orientations in approximately equal proportions, as quantified by reacting single engineered cysteines with membrane-impermeable dyes (FIG. 3A). […]

[1] = molecular target: inactive EcGlpG mutants (His-EcGlpG C104A+H254A; HA-EcGlpG S201A+H254A); assay type: binding, Escherichia coli; details: gel filtration and co-precipitation, non-equilibrium; read-out: Kd (low affinity)
Experimental: (§2) 2.5 μM His-tagged EcGlpG C104A+H254A with 70 μM FITC-TatA was incubated with pre-equilibrated Ni^2+-NTA resin (Qiagen) for 3 hours at room temperature. The resin was washed, and bound proteins were eluted with SDS-sample buffer for 30 minutes. FITC-TatA was detected as above using a 16% Tricine gel and a Typhoon Imager. His-EcGlpG C104A+H254A was detected by western blot with the mouse anti-penta-His antibody (Qiagen), and imaged with an Odyssey infrared scanner (LiCor Biosciences).
(§3) Two Superdex 200 PC 3.2/30 high-resolution gel filtration columns (GE Healthcare) were connected in tandem to a ProStar 410 HPLC system (Agilent/Varian), and equilibrated with 9.5 μM FITC-TatA in 2 mM phosphate buffer pH 7.4, 25 mM Tris pH 7.4, 120 mM NaCl, 0.15% Sarkosyl, 0.1% DDM, 1 mM DTT. 20 μM HA-EcGlpG S201A+H254A was preincubated with 9.5 μM FITC-TatA, and 50 μL was injected using an Autosampler 410 onto the columns at a flow rate of 0.05 mL/minute. Elution was monitored by absorbance at all wavelengths between 200 to 600 nm simultaneously using a PDA 330 detector. The FITC-TatA peak was quantified relative to known FITC-TatA concentration standards that were run on the columns equilibrated with 9.5 μM FITC alone in buffer. Conventional gel filtration was conducted under similar conditions, except the columns were equilibrated with buffer lacking FITC-TatA.

[2] = molecular target: T2, inactive EcGlpG mutants (His-EcGlpG C104A+H254A; HA-EcGlpG S201A+H254A) (Escherichia coli, UniProt P09391, C104A/H254A); assay type: binding; details: co-precipitation
T2 construct: made in house
Experimental: as §2, §3

[3] = molecular target: T3, catalytically inactive TMR-GlpG (C104A+W196TMR+H254A) (Escherichia coli, UniProt P09391, C104A/H254A/W196C); assay: FRET analysis of protease-substrate affinity in membranes; assay type: binding; details: in proteoliposomes
T3 construct: His (N); TMR (tetramethylrhodamine-5-maleimide) dye on the side chain of Cys196; made in house
T3 sequence (P09391 1-276 C104A/W196C/H254A): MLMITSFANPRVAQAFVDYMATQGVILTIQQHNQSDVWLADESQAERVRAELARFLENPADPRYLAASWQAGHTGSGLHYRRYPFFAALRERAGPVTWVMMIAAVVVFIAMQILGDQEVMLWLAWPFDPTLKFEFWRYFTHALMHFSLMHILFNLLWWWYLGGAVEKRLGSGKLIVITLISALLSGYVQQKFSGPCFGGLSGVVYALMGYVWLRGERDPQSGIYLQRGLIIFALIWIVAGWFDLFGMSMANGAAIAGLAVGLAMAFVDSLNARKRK
Experimental: Purified N-terminally His-tagged EcGlpG H254A+C104A+W196C protein was labeled at the single cysteine residue with the FRET acceptor tetramethylrhodamine-5-maleimide (TMR) (Life Technologies). Reconstitutions into E. coli liposomes were performed as described above, except that 30 pmoles of TMR-labeled protein was mixed with 25-800 pmoles of the FITC-TatA ligand. Following reconstitution, the samples were incubated at 37° C. in a Synergy H4 Hybrid plate reader. Fluorescence was measured with excitation at 485 nm and emission from 510-600 nm in 5 nm intervals. The FRET interaction was calculated at the 580 nm emission wavelength by subtracting the TMR-labeled GlpG protein alone and the FITC-TatA alone samples from the sample containing both macromolecules.

HA-EcGlpG = molecular target: T4, HA-EcGlpG (Escherichia coli, UniProt P09391); assay: Proteolysis assay in detergent micelles; assay type: biochemical; details: faster in detergent
T4 construct: GST (cleaved yes); made in house; host or cells: E. coli C43 (DE3)
T4 sequence (P09391 1-276): T3 sequence (P09391 1-276 C104A/W196C/H254A) with A104C, C196W, A254H
Experimental: Cleavage reactions of APP+Spi7-Flag were performed as described previously and imaged with an Odyssey infrared scanner (LiCor Biosciences) (Baker and Urban, 2012; Baker et al., 2007). […] Reactions were quenched and analyzed on 16% tricine gels as above. Actual substrate concentrations were calibrated using FITC-TatA standards analyzed in parallel.

EcGlpG = EcGlpG (Escherichia coli, UniProt P09391); details: 37° C. for 3 hours
Experimental: Rhomboid protein in 50 mM Tris pH 7.4, 150 mM NaCl, 0.1% DDM was incubated with either 10% DMSO only or carrying […] JLK6 at 37° C. for 3 hours, purified using a C4 ZipTip, and analyzed by mass spectrometry as described previously (Pierrat et al., 2011).

[4] = tested on: three different rhomboid proteases; assay: Manual 384-well compound screen in proteoliposomes; assay type: biochemical; details: 1 hour at 37° C., no compound pre-incubation
Experimental: FIG. 12. Assay Evaluation in Manual Compound Screens. […] B. We assayed 3 different rhomboid proteases independently in hand-pipetted 384-well screens against a custom-assembled library of protease inhibitors, combinatorial compounds, and membrane enzyme inhibitors (all in DMSO). Assays were conducted for 1 hour at 37° C. and fluorescence intensity was read every 2 minutes. Graphed are the 60 minute values, with the last (rightmost) 7 wells being the isocoumarin inhibition controls.
An important consideration is assay suitability for HTS, which we evaluated by manually screening a diverse panel of class-specific protease inhibitors (natural products, sulphonyl fluorides, hydroxamate-based metalloprotease inhibitors, vinyl sulfones, isocoumarins, chloromethyl ketones, proteasomal inhibitors, aspartyl protease inhibitors, cysteine protease inhibitors), a combinatorial library of peptide diphenyl-phosphonates, and over a dozen lipid enzyme inhibitors/drugs (some of which are known to affect other intramembrane proteases). We hand-assembled this library of 111 compounds because it represents likely candidates for real rhomboid inhibitors on the one hand, and on the other poses challenges for assay performance because most are chemically-reactive (warhead) molecules. […]

HA-PsAarA = molecular target: T5, HA-PsAarA (Providencia stuartii, UniProt P46116); assay: Real-time kinetics of substrate variants in proteoliposomes; assay type: biochemical; details: in words
T5 construct: GST (cleaved yes); made in house; host or cells: E. coli C43 (DE3)
T5 sequence (P46116 whole entry, looked up): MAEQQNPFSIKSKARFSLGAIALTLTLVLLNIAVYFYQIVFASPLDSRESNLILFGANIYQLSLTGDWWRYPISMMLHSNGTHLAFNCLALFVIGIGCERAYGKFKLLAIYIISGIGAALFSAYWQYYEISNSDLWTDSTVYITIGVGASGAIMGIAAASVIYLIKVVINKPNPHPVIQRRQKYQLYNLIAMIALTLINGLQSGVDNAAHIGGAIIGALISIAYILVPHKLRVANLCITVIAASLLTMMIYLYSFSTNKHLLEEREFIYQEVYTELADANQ
Experimental: as §1
All data were analyzed and graphed using the R language and environment. Initial rates were extracted from real-time curves between 4 and 14 minutes using the slope (m) in a linear model: y=mx+b. […]

T1 sequence (P09391 whole entry): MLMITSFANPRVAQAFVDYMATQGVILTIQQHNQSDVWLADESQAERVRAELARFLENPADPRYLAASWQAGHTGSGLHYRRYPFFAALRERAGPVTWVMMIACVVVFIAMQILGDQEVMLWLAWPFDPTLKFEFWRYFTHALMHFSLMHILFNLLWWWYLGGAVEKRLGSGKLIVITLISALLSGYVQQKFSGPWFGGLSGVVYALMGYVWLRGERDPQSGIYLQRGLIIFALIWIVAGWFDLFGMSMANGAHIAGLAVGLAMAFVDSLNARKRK
Chain of EcGlpG (P09391 whole entry): as above
T2 sequence (P09391 whole entry C104A/H254A): as the sequence (P09391 whole entry) above, with C104A, H254A counted along it

CC[C@H](C)[C@H](NC(=O)[C@H](CC(C)C)NC(=O)[C@@H](NC(=O)[C@@H](NC(=O)[C@H](CC(C)C)NC(=O)[C@H](CC(C)C)NC(=O)[C@H](C)NC(=O)[C@@H](NC(=O)[C@@H](NC(=O)[C@@H](NC(=O)[C@H](CC(C)C)NC(=O)[C@H](CCC(N)=O)NC(=O)[C@H](Cc1c[nH]c2ccccc12)NC(=O)[C@@H]1CCCN1C(=O)[C@H](CO)NC(=O)CNC(=O)[C@H](Cc1ccccc1)NC(=O)[C@H](C)NC(=O)[C@H](C)NC(=O)[C@@H](NC(=O)[C@H](C)NC(=O)[C@@H](NC(=O)[C@@H](NC(=O)[C@H](CO)NC(=O)[C@H](CCC(=O)O)NC(=O)[C@H](CCSC)NC(=O)CCNC(=S)Nc1ccc2c(c1)C(=O)OC21c2ccc(O)cc2Oc2cc(O)ccc21)[C@@H](C)O)[C@@H](C)CC)[C@@H](C)O)[C@@H](C)CC)[C@@H](C)CC)[C@@H](C)CC)[C@@H](C)CC)[C@@H](C)CC)C(=O)N[C@@H](Cc1ccccc1)C(=O)NCC(=O)N[C@H](C(=O)N[C@@H](CCCCN)C(=O)N[C@@H](CCCCN)C(=O)N[C@@H](CC(C)C)C(=O)N[C@@H](CCCNC(=N)N)C(N)=O)[C@@H](C)O [FITC-TatA] ({FITC-βAla}-MESTIATAAFGSPWQLIIIALLIILIFGTKKLR-NH2)
KM (E. coli GlpG; proteoliposomes of E. coli lipids, relative to phospholipid): 0.14±0.02 mole percent | kcat (E. coli GlpG; proteoliposomes, enzyme saturated with substrate): 0.0063 ± 0.00021 s⁻¹ | Kd [1]: > 800 µM | FITC-TatA eluting with His-EcGlpG [2]: < 0.1% | apparent Kd [3]: 0.08±0.026 mole percent | kcat in detergent relative to proteoliposomes (HA-EcGlpG): ~6.5 fold

COc1oc(=O)c2cc(N)ccc2c1Cl [JLK6, reference compound]
effect on fluorescence signal and cleavage product of FITC-TatA cleavage (E. coli GlpG; proteoliposomes, 37° C., pretreatment with inhibitor): blocked generation of the fluorescence signal and cleavage product; also recorded: abrogated signal to background | mass shift of enzyme after incubation with inhibitor (EcGlpG): complete mass shift

O=c1occc2ccccc12 [isocoumarin]
inhibition in screen [4]: obvious evidence of inhibition of all three rhomboid proteases

Spitz: Drosophila signaling molecule Spitz residues 135-168 of 186, FITC-labelled substrate
kcat and KM relative to TatA (HA-PsAarA): lower kcat without any significant change in KM
